US20080207447A1, “Cyanopyridine Pesticides” (BASF Aktiengesellschaft, priority 2005, published 2008)

How the values were obtained:
Assay type in all cases: in vivo
[1] = system: Green Peach Aphid (Myzus persicae), mixed life stages; experiment: Green peach aphid (Myzus persicae), mixed life stages, bell pepper leaf dip test; conditions: foliar, 120 h, infested bell pepper leaves dipped, determined after 5 days, read-out: mortality of green peach aphid in comparison with untreated controls
Experimental: (§1) The active compounds were formulated in a mixture of 50 vol.-% acetone:50 vol.-% water. A nonionic surfactant (Kinetic®) was included in the solution at a volume of 0.01% v/v.
(§2) In the following tests, the formulated solutions of the active compounds were diluted to an active ingredient concentration of 300 ppm and the diluted solutions were applied in the below mentioned tests.
(§3) II.1 Cotton Aphid (Aphis gossypil), Mixed Life Stages • Cotton plants at the cotyledon stage were infested prior to treatment by placing a heavily infested leaf from the main aphid colony on top of each cotyledon. The aphids were allowed to transfer overnight and the host leaf was removed. The infested cotyledons were then dipped and agitated in the test solution for 3 seconds and allowed to dry in a fume hood. […] Aphid mortality on the treated plants, relative to mortality on untreated check plants, was determined after 5 days. • In this test compounds each of examples 12 to 36, 38, 39, 40 and 41 at 300 ppm provided at least 90% mortality of cotton aphid (Aphis gossypii, mixed life stages) in comparison with untreated controls. […] Aphid mortality on the treated plants, relative to mortality on untreated check plants, was determined after 5 days. • In this test compounds each of examples 12 to 36, 38, 39, 40 and 41 at 300 ppm provided at least 90% mortality of green peach aphidin comparison with untreated controls. […]

[2] = system: Cotton Aphid (Aphis gossypii), mixed life stages; experiment: Cotton aphid (Aphis gossypii), mixed life stages, cotyledon dip test; conditions: 120 h, infested cotton cotyledons dipped, determined after 5 days, read-out: mortality of cotton aphid in comparison with untreated controls
Experimental: as §1, §2, §3

Bean Aphid (Aphis fabae) = experiment: Bean aphid (Aphis fabae), nasturtium plant dip test; conditions: 72 h, infested nasturtium plants dipped, determined after 3 days, read-out: mortality of bean aphid in comparison with untreated controls

Measured: mortality at 300 ppm

Cc1cncc(S(=O)(=O)N(C)C)c1C#N [Example 12, 4-Cyano-5-methyl-pyridine-3-sulfonic acid dimethylamide]
≥ 90%: all assays above
